Experimental data taken from ChEMBL document CHEMBL1151291, “Antiviral activity of lignans” (J Nat Prod, 1998).
Converted amounts (≈) assume the structure as drawn.

Legend:
[1] = Cytotoxicity against human primary amnion cells assessed as morphological changes by microscopic examination; type: functional
[2] = Therapeutic index, ratio of MTC for human primary amnion cells to lowest drug level causing inhibition of HSV1; conditions: read-out: TI
Human alphaherpesvirus 1 [3] = assay: Antiviral activity against HSV1 infected in human primary amnion cells assessed as inhibition of virus-induced pathogenic effect; type: functional
[4] = tested on: Human immunodeficiency virus; assay: Antiviral activity against HIV assessed as reduction of viral protein production at 0.52 uM; type: functional; set-up: scale not given: the % may be the effect or the level left
[5] = tested on: Human immunodeficiency virus 1; assay: Antiviral activity against HIV1 infected in human H9 cells assessed inhibition of viral replication; type: functional, organism-based; conditions: Human immunodeficiency virus 1, H9
[6] = tested on: Human immunodeficiency virus; assay: Antiviral activity against HIV assessed as reduction of viral protein production at 0.27 uM; type: functional; set-up: scale not given: the % may be the effect or the level left
[7] = Therapeutic index, ratio of inhibition of human H9 cells to EC50 for HIV1; type: cell-based; conditions: read-out: TI
Human alphaherpesvirus 1 [8] = assay: Antiviral activity against HSV1 infected in monkey CV-1 cells assessed as inhibition of plaque formation; type: functional, organism-based; conditions: Human alphaherpesvirus 1, CV-1
[9] = tested on: Vesicular stomatitis virus; assay: Antiviral activity against VSV infected in BHK cells assessed as inhibition of plaque formation; type: functional, organism-based
[10] = tested on: Vesicular stomatitis virus; assay: Antiviral activity against VSV infected in rabbit RL-33 cells; type: functional
Murid betaherpesvirus 1 [11] = assay: Antiviral activity against Murine cytomegalovirus in mouse 3T3-L1 cells at 263 nM; type: functional; conditions: Murid betaherpesvirus 1, 3T3-L1
[12] = Cytotoxicity against rabbit RL33 cells; type: cell-based, Oryctolagus cuniculus
Sindbis virus [13] = assay: Antiviral activity against Sindbis virus in mouse 3T3-L1 cells at 273 nM; type: functional
[14] = tested on: Human immunodeficiency virus; assay: Antiviral activity against HIV; type: functional, organism-based; conditions: Human immunodeficiency virus 1
[15] = Inhibition of human DNA polymerase alpha
Murid betaherpesvirus 1 [16] = assay: Antiviral activity against Murine cytomegalovirus in mouse 3T3-L1 cells at 241 nM; type: functional; conditions: Murid betaherpesvirus 1, 3T3-L1
Sindbis virus [17] = assay: Antiviral activity against Sindbis virus in mouse 3T3-L1 cells at 241 nM; type: functional

SMILES | Activity [1] | selectivity ratio [2] | Activity (Human alphaherpesvirus 1 [3]) | other results
COc1cc([C@@H]2c3cc4c(cc3[C@H](O)[C@H]3COC[C@H]23)OCO4)cc(OC)c1OC [ANHYDROPODOPHYLLOL] | >200 µM | 800 | 0.25 µM | –
COc1cc(C[C@H]2C(=O)OC[C@@H]2Cc2ccc(OC)c(OC)c2)ccc1O [ARCTIGENIN] | – | – | – | Activity [4]: 60%; EC50 [5]: 420 nM; Activity [6]: 60%; selectivity ratio [7]: 9
COc1cc([C@@H]2c3cc4c(cc3[C@H](O)[C@H]3COC(=O)[C@@H]23)OCO4)cc(OC)c1OC [AXL-1717] | 140 µM | 75 | 1.9 µM | –
COc1cc([C@@H]2c3cc4c(c(O)c3C[C@H]3COC(=O)[C@@H]32)OCO4)cc(OC)c1OC [BETA-PELTATIN A] | 120 µM | 333 | 0.36 µM | –
COc1cc([C@@H]2c3cc4c(cc3C[C@H]3COC(=O)[C@H]32)OCO4)cc(OC)c1OC [DEOXYPICROPODOPHYLLIN] | – | – | – | IC50 (Human alphaherpesvirus 1 [8]): 2000 nM; IC50 [9]: 2000 nM
COc1cc([C@@H]2c3cc4c(cc3C[C@H]3CSC(=O)[C@@H]32)OCO4)cc(OC)c1OC [DEOXYPODOPHYLLOTOXIN CYCLIC SULFIDE] | 37 µM | 3 | 12 µM | –
COc1cc([C@@H]2c3cc4c(cc3C[C@H]3CC(=O)C[C@@H]32)OCO4)cc(OC)c1OC [DEOXYPODOPHYLLOTOXIN CYCLOPENTANONE] | 122 µM | 2.5 | 49 µM | –
COc1cc([C@@H]2c3cc4c(cc3C[C@H]3COC(=O)[C@@H]32)OCO4)cc(OC)c1OC [DESOXYPODOPHYLLOTOXIN] | >25 µM | 667 | 0.038 µM | IC50 (Human alphaherpesvirus 1 [8]): 25 nM; IC50 [9]: < 25 nM
COc1cc2c(O)c3c(c(-c4ccc5c(c4)OCO5)c2cc1OC)C(=O)OC3 [DIPHYLLIN] | – | – | – | MIC [10]: 0.16 µM (≈ 0.0609 µg/mL); inhibition at 0.263 µM (Murid betaherpesvirus 1 [11]): 11%; Activity [12]: 85 µM; inhibition at 0.273 µM (Sindbis virus [13]): 18%
COc1cc([C@@H]2c3cc4c(cc3[C@@H](OC(C)=O)[C@H]3CSC(=O)[C@H]23)OCO4)cc(OC)c1OC [EPIPODOPHYLLOTOXIN ACETATE] | – | – | – | IC50 (Human alphaherpesvirus 1 [8]): 440 nM; IC50 [9]: 220 nM
COc1cc([C@@H]2c3cc4c(cc3[C@@H](O)[C@H]3COC(=O)[C@H]23)OCO4)cc(OC)c1OC [EPIPODOPHYLLOTOXIN] | 24 µM | 15 | 1.6 µM | –
COc1cc([C@@H]2c3cc4c(cc3[C@@H](O[C@@H]3O[C@@H]5CO[C@@H](C)O[C@H]5[C@H](O)[C@H]3O)[C@H]3COC(=O)[C@H]23)OCO4)cc(OC)c1O [ETOPOSIDE] | 100 µM | 1.2 | 85 µM | –
COc1cc2c(c(OC)c1OC)-c1c(cc3c(c1OC)OCO3)[C@H](OC(=O)c1ccccc1)[C@@](C)(O)[C@@H](C)C2 [GOMISIN G] | – | – | – | IC50 [14]: 11 nM
COc1cc2c(OC)c3c(c(-c4ccc5c(c4)OCO5)c2cc1OC)C(=O)OC3 [JUSTICIDIN A] | – | – | – | MIC [10]: 0.65 µM (≈ 0.256 µg/mL); Activity [12]: 166 µM
COc1cc2c(c(OC)c1OC)-c1c(cc3c(c1OC)OCO3)C[C@@H](C)[C@@H](C)C2 [KADSURANIN] | – | – | – | IC50 [14]: 2000 nM
COCc1cc2cc(OC)c(OC)cc2c(-c2ccc3c(c2)OCO3)c1C=O [PHYLLAMYRICIN B] | – | – | – | IC50 [15]: 3500 nM
COc1cc([C@@H]2c3cc4c(cc3[C@H](O)[C@H]3COC(=O)[C@H]23)OCO4)cc(OC)c1OC [PODOFILOX] | 140 µM | 6000 | 0.024 µM | IC50 (Human alphaherpesvirus 1 [8]): 50 nM; inhibition at 0.241 µM (Murid betaherpesvirus 1 [16]): 74%; inhibition at 0.241 µM (Sindbis virus [17]): 3%; IC50 [9]: 100 nM
COc1cc2cc3c(c(-c4ccc5c(c4)OCO5)c2cc1OC)COC3=O [RETROJUSTICIDIN B] | – | – | – | IC50 [15]: 5500 nM
COc1c2c(cc3c1-c1c(cc4c(c1OC)OCO4)C[C@H](C)[C@H](C)C3)OCO2 [SCHISANDRIN C] | – | – | – | IC50 [14]: 3100 nM
